The subject of experiment [1] is NCI-H2122. Kind of experiment: relative IC50 of cell viability (CellTiter-Glo); higher = less potent. In a few lines:
(§1)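 NCI-H2122 (800 cells/well), SW837 and NCI-H358 (500 cells/well) were seeded in 60 µl in 384-well plates. After 24 h, single compounds were dispensed acoustically in dose series and incubated 72 h (NCI-H2122, NCI-H358) or 144 h (SW837). Viability was read by CellTiter-Glo luminescence (15 min shaking, EnVision reader) and normalised to DMSO controls (percent of control). Relative IC50 (averaged over replicates) and the lower plateau come from a four-parameter nonlinear fit.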
For orientation: In ATP-based viability assays light output follows the ATP content of the culture.

Experiment [2] concerns NCI-H358. The description is as above. In a few lines:
as §1

Experiment [3] concerns SW837. The description is as above. The essentials:
as §1

In experiment [4] the test system is NCI-H2122. Description: fitted bottom plateau of viability curve, % of DMSO control; higher = less maximal inhibition; extreme values may be limits of the assay. The essentials: as §1
Experiment [5] concerns NCI-H358. The description is as above. In a few lines: as §1
For experiment [6], the system named is SW837. The experiment is described as above. The essentials:
as §1

SMILES strings stand for the structures.

Take `O=C1c2c(O)ccc(O)c2C(=O)c2c(NCCNCCO)ccc(NCCNCCO)c21` [Mitoxantrone] (top concentration tested 999.98 nM): the “relative IC50 of cell viability” value in the experiment on NCI-H2122 [1] stood at 62.4 nM; in the experiment on NCI-H358 [2] it was 19.9 nM; in the experiment on SW837 [3], 79.2 nM. Further, the “fitted bottom plateau of viability curve” value in the experiment with NCI-H2122 [4] turned out to be 28.7%; in the experiment with NCI-H358 [5], 7.11%; with SW837 [6], 0%.

Take `C=CC(=O)Nc1cc(Nc2nccc(-c3cn(C)c4ccccc34)n2)c(OC)cc1N(C)CCN(C)C` [Osimertinib] (top concentration tested 10000 nM): the “relative IC50 of cell viability” value with NCI-H2122 [1] is 2560 nM; in the experiment on NCI-H358 [2] it was 1010 nM; with SW837 [3], 2210 nM. In addition, the “fitted bottom plateau of viability curve” value amounted to 0.698% in the experiment with NCI-H2122 [4], 0% in the experiment on NCI-H358 [5] and 11.4% in the experiment on SW837 [6].

In the case of `Cc1ccc(C(=O)Nc2ccc(CN3CCN(C)CC3)c(C(F)(F)F)c2)cc1C#Cc1cnc2cccnn12` [Ponatinib] (top concentration tested 10000 nM), the “relative IC50 of cell viability” value worked out at 887 nM in the experiment with NCI-H2122 [1], 2290 nM with NCI-H358 [2] and 1250 nM in the experiment with SW837 [3]. Also, the “fitted bottom plateau of viability curve” value in the experiment with NCI-H2122 [4] turned out to be 0.652%; in the experiment with NCI-H358 [5], 0.0743%; with SW837 [6], 0%.

For `CCc1nc(N)nc(N)c1-c1ccc(Cl)cc1` [Pyrimethamine] (top concentration tested 50000 nM), the “relative IC50 of cell viability” value with NCI-H2122 [1] came to 3430 nM; in the experiment on NCI-H358 [2] it was 8340 nM; in the experiment on SW837 [3], 8070 nM. The “fitted bottom plateau of viability curve” value in the experiment on NCI-H2122 [4] came to 28.9%; in the experiment on NCI-H358 [5], 45.5%; in the experiment on SW837 [6], 39%.

Consider `CCc1c2c(nc3ccc(O)cc13)-c1cc3c(c(=O)n1C2)COC(=O)[C@]3(O)CC` [SN-38] (top concentration tested 99.894 nM), for which the results for the “relative IC50 of cell viability” value with NCI-H2122 [1], in the experiment on NCI-H358 [2] and with SW837 [3] were 6.15 nM, 6.48 nM and 10.4 nM, respectively. The “fitted bottom plateau of viability curve” value in the experiment with NCI-H2122 [4] is 30.2%; in the experiment on NCI-H358 [5], 7.46%; in the experiment on SW837 [6], 2.39%.

Source of the values: the supplement of paper PMC11424490.
